Legend:
Type in all cases: in vivo, human
[1] = system: patient under morphine treatment; assay: Sleepiness evaluated on the Epworth scale in hospitalized patients under morphine treatment
Description: the Epworth scale, while ensuring the analgesic properties of morphine and the properties of antidepressant, anxiolytic or analgesic medicaments are maintained. The patient is thus re-established in a satisfactory relational life.
(§1) In order to illustrate the invention, but without limiting its scope, the results of observations made confidentially on patients in the context of hospitalization are reported below. The consent of the patients was obtained after the compassionate grounds of the prescription had been explained to them.

[2] = Body weight (nutritional recovery) of patient; settings: Case 1; in 10 days, under Moscontin plus Modiodal 200 mg
Method: Given the progression of painful phenomena, at the end of October 1997 the patient is hospitalized. At this point in time the dosage of Moscontin® is 100 mg twice every 24 hours, their EVA score is 60, and their sleepiness evaluated on the Epworth scale is 20. The Moscontin® is increased to 160 mg twice every 24 hours. After stabilization of the analgesic level at an EVA score of 30, treatment with Modiodal®, initially in a dosage of 100 mg and then rapidly 200 mg, is initiated. This dosage allows their Epworth score to drop below 10. This quality of awakening has enabled them to resume family relationships of a better quality. The efficacy of the analgesia and their better vigilance level has enabled them to take accompanied walks. A nutritional recovery manifesting itself by a weight increase of 2 kg in 10 days is also to be noted in this patient.

[3] = system: patient under morphine treatment; assay: Pain rating on the EVA scale in patients
Description: as §1

[4] = Case 2, Skenan doses doubled combined with 200 mg Modiodal
[5] = Case 5, morphine treatment at home (oral)

Compound: NC(=O)C[S+]([O-])C(c1ccccc1)c1ccccc1 (stereo not drawn) [Modiodal®, benzhydrylsulphinyl-acetamide]
- Epworth score ([1]; Case 1, Modiodal 100 mg then 200 mg, with Moscontin 160 mg twice every 24 hours): below 10
- vigilance level rating (Epworth) [1, 4]: less than 10
- state of vigilance rating (Epworth) ([1]; Case 3, Modiodal 100 mg then 200 mg, with morphine 40 mg subcutaneous): 12
- sleepiness index after modafinil ([1]; Case 4, modafinil 300 mg achieved progressively, with Moscontin 100 mg x2): 11
- sleepiness index after modafinil ([1]; Case 5, modafinil 200 mg per day, with morphine 40 mg subcutaneous): 15
- clinical results (in words) ([1]; about 200 to 400 mg per day, in 1 or 2 doses): very favourable results
- effect on morphine sleepiness and that associated with clonazepam (in words) ([1]; summary of pilot cases 1 to 5): efficacy
- weight increase [2]: 2 kg
- EVA (analgesic level) [3, 4]: 20

Compound: O=C(C[S+]([O-])C(c1ccccc1)c1ccccc1)NO (stereo not drawn) [Olmifon®, benzhydrylsulphinyl-acetohydroxamic acid]
- clinical results (in words) ([1]; about 1,200 to 1,800 mg per day, in 2 doses): very favourable results

Compound: CN1CC[C@]23c4c5ccc(O)c4O[C@H]2[C@@H](O)C=C[C@H]3[C@H]1C5 [morphine]
- state of sleepiness on the Epworth scale ([1]; Case 3, morphine 40 mg subcutaneous, before Modiodal): 20
- sleepiness (in words) [1, 5]: severe sleepiness
- sleepiness index before modafinil ([1]; Case 5, under morphine, before modafinil): 22
- pain rating on the EVA scale ([3]; Case 3, continuous subcutaneous morphine combined with oral clonazepam): 30
- EVA [3, 5]: 40
